From US8097585B2, “Methods of treating inflammation by administration of heme oxygenase-1 and products of heme degradation” (priority 2002, dated 2012)

How the values were obtained:
[1] = test system: DSS-colitis; test: DSS-colitis (acute colitis) mouse model: weight loss, DAI, symptoms, crypt score; assay type: in vivo, C57BL/6 mice
Description: Animals. Pathogen-free male C57BL/6 mice, 4-6 weeks of age (Taconic; C57BL/6×129 svj strain) were used in this example. Mice were kept for one week at 4 mice/cage and fed normal laboratory chow and drinking water ad libitum prior to the experiments. All mice weighed between 22.5 g and 27.7 g at the beginning of the trial. The animal experimentation protocol was reviewed and approved by the Animal Care and Use Committees of the Beth Israel Deaconess Medical Center.
Induction of Colitis. Colitis was induced by feeding mice 5% (wt/v) dextran sodium sulfate (DSS) (MW 40,000; ICN Biomedicals Inc., OH), dissolved in distilled water, for a period of 7 days. The resulting condition was termed “DSS-colitis.” Control animals were fed distilled water ad libitum. The mortality rate in the control group and the CO-treated group was 10% (2/20) and 14% (2/14), respectively. These animals were excluded from the statistical analysis. In the other groups, no mortality occurred during 7 days of 5% DSS treatment.
Experimental Reagents and Treatment Protocol. Cobalt protoporphyrin (CoPPIX), zinc protoporphyrin (ZnPPIX, Porphyrin Products, Logan, Utah) and biliverdin dihydrochloride (ICN Biomedicals Inc., OH) were dissolved in a small amount 0.2 M NaOH, subsequently adjusted to a pH of 7.4 with 1 M HCl, and diluted in 0.9% NaCl. The stock solutions (CoPPIX and ZnPPIX=1 mg/ml, biliverdin=10 mM) were aliquoted and kept at −70° C. until used. Light exposure was limited as much as possible. CoPPIX (5 mg/kg), ZnPPIX (20 mg/kg) and biliverdin (50 μmol/kg) were administered to the mice intraperitoneally (i.p.) 24 hours before induction of DSS-colitis and daily thereafter. Desferoxamine (DFO) was prepared in imidazole buffer (50 mM imidazole, 220 mM NaCl, pH 7.4). DFO was injected subcutaneously (s.c.) twice daily (125 mg/kg) or infused i.p. (130 mg/kg/day; pumping rate 0.5 μl/hour for 8 days) by miniosmotic Alzet™ pumps (Alza Corporation, Palo Alto, Calif.) (Postma et al., Exp. Parasitol. 89(3):323-30 1998). The pumps were installed i.p. 24 hours before induction of colitis. When animals were sacrificed at day 7 of DSS treatment, the pumps were removed and evaluated to determine if DFO application had taken place.
CO gas was administrated exogenously by putting animals in a CO exposure chamber (Otterbein et al., Nat. Med. 6(4):422-8, 2000). Briefly, CO at a concentration of 1% (10,000 parts per million (ppm)) in compressed air was mixed with balanced air (21% oxygen) in a stainless steel mixing cylinder before entering the exposure chamber. CO concentrations were controlled by varying the flow rates of CO in a mixing cylinder before delivery to the chamber. Because the flow rate is primarily determined by the O2 flow, only the CO flow was changed to deliver the final concentration to the exposure chamber. A CO analyzer (Interscan Corporation, Chatsworth, Calif.) was used to measure CO levels continuously in the chamber. Mice were placed in the chamber 24 hours before the induction of the colitis and were kept in the exposure chamber during the whole period of the experiment (total of 8 days). […] Animals were removed daily from the chamber to assess weight and stool.
Evaluation of Symptoms of Colitis. All animals were evaluated clinically on a daily basis. The evaluation of each animal included a measurement of weight, hemoccult positivity and examination of stool for the presence of gross blood and stool consistency. The disease activity index (DAI) was calculated by scoring percent weight loss, intestinal bleeding (no blood; occult blood=hemoccult+; gross blood) and stool consistency (normal stool=well-formed pellets; loose stool=pasty and semiformed stools; diarrhea=liquid stool that stuck to the anus) (Table 1).
The animals were sacrificed, and the whole colon from the colo-cecal junction to the anal verge was removed and gently cleaned of stool. […]

[2] = test system: HO-1; test: HO activity assay on spleen and heart of treated mice; assay type: in vivo, DBA/2J mice; details: 5 mg/kg i.p., one day after treatment
Protocol: HO activity assay. DBA/2J mice were given either no treatment or CoPPIX or ZnPPIX at a dose of 5 mg/kg, i.p. (n=10 per group). One day after the treatment, the animals were sacrificed, the spleen and the heart were excised, and tissue samples were frozen at −80° C. Frozen tissue samples were homogenized in ice-cold sucrose and Tris-HCl buffer. The microsomal pellet was obtained after centrifugation and re-suspended in MgCl2-potassium phosphate buffer. Sample protein was then incubated with the reaction mixture containing rat liver cytosol, hemin, glucose-6-phosphate, glucose-6-phosphate dehydrogenase and NADPH (Sigma-Aldrich Corporation, St. Louis, Mo.) for 60 minutes at 37° C. The generated bilirubin was measured by reacting with diazotized surfanilic acid to yield azobilirubin using spectrophotometer.

[3] = test system: recipient splenocytes; test: Mixed lymphocyte culture with splenocytes of treated cardiac allograft recipients; assay type: in vivo, mice; details: harvested 5 days after cardiac transplantation, 72 hours culture with DBA/2 splenocytes; compared to controls
Protocol: Mixed lymphocyte culture (MLC). Irradiated (25Gy, ^137Cs) DBA/2 splenocytes (5×10^5/well) were co-cultured with responders (5×10^5/well) in a 96 well round bottom plates for 3 days at 37° C., 95% air with 5% CO2. When using cells from cardiac recipients as responders, the co-culture period was 3 days without any further in vitro treatment. ^3H-thymidine (1 μCi/well) was added 16 hours before termination of cell culture, and ^3H-thymidine incorporation was measured.
Induction of HO-1 expression or biliverdin administration suppresses the T cell mediated alloimmune response in vivo. […] Recipient splenocytes harvested 5 days after cardiac transplantation were used as responder cells in an in vitro culture with DBA/2 splenocytes as feeder cells. Proliferation was measured at 72 hours (FIG. 9).

[4] = test system: DBA/2 cardiac allografts in B6AF1 recipients; test: Heterotopic cardiac allograft transplantation, graft survival; assay type: in vivo, mice
Protocol: Animals. Male DBA/2 (H-2^d), B6AF1 (H-2^k/d,b) and FVB (H-2^q) mice were purchased from Jackson Lab. Inc. (Bar Harbor, Me.). They were maintained in the institutional specific-pathogen free facility, which has an appropriate light cycle with free access to water and chow ad libitum, and used for experiments at age of 6-10 weeks.
Cardiac transplantation. DBA2/J and B6AF1 mice were used as donor and recipient, respectively. Heterotopic heart transplantation was carried out according to the procedure of Corry and Russell (Corry et al., Transplant Proc. 5(1):733-5, 1973). […] Secondary heart grafting into the neck was performed using a cuff technique as described previously (Matsuura et al., Transplantation 51(4):896-8, 1991). Briefly, the heart graft was harvested from either DBA2/J (donor strain) or FVB (third-party strain) mice. The right jugular vein and the right common carotid artery of recipient were dissected, and a cuff (polyethylene or polyimide) was connected to these vessels. The graft aorta and pulmonary artery were sleeved over the cuff on the recipient's common carotid artery and the jugular vein, respectively, and fixed with a ligature. After transplantation, beating of the graft was monitored by daily palpation, and scored +1 to +4 according to the strength of graft contractions. Graft rejection was defined as cessation of beating, and was confirmed by direct inspection followed by histological examination.
Donor and recipient mice were treated either with CoPPIX (5 mg/kg/day), ZnPPIX (5 mg/kg/day) or biliverdin (administered once, twice or three times per day at a dose of 50 μmol/kg/dose). All reagents were administered by intraperitoneal (i.p.) injection. Donor animals were treated for 2 days, starting from 2 days before graft harvest (day-2 and day-1). Treatment of recipient mice was initiated one day before transplantation, and continued until 13 days post-transplant (day-1 to day 13). For the experiments using donor splenocyte infusion (DSI) on day-7 (DSI (D-7)), treatments of recipient animals (either with CoPPIX or ZnPPIX) started from day-8 and were terminated on day 6. Recipients received no further treatment. Spleen cells (2×10^7) isolated from DBA/2J mice as described herein were used for DSI treatment. The cells were injected via the penile vein with 200 μl of 0.9% saline solution.
Statistics. Cardiac graft survival was plotted by the Kaplan-Meier method, and a log-rank test was applied to compare statistical significance. Expression levels of HO-1/α-actin protein are expressed as mean±standard deviation. Other data are expressed as mean±standard error of the mean (mean±SEM). Intergroup statistical analysis was performed by one-way ANOVA, and Fisher's PSLD was used for a post-hoc test. A comparison was considered statistically significant when the p-value was <0.05.

[5] = test system: DBA/2 islets in diabetic B6AF1 recipients; test: Allogeneic islet transplantation, graft survival and tolerance test; assay type: in vivo, mice
Protocol: Animals. Male DBA/2, B6AF1 and DBA/1 mice 6-8 week of age (Jackson) are used in the experiments. Mice were kept for 2 weeks at 4 mice/cage and fed normal laboratory chow before using for the experiment.
Treatment protocol. Recipients were rendered diabetic using streptozotocin (STZ, 225 mg/kg). Five days after STZ administration, animals with two consecutive blood glucose levels exceeding 350 mg/dl are used as recipients. Islets (500) are transplanted under the kidney capsule of the recipients.
Reagents. Cobalt protoporphyrin (CoPPIX, Porphyrin Products, Logan, Utah), biliverdin dihydrochloride and bilirubin (ICN Biomedicals Inc., OH) were dissolved in a small amount of 0.2 M NaOH, subsequently adjusted to a pH of 7.4 with 1 M HCl, and diluted in 1×PBS. The stock solutions (CoPPIX=2 mg/ml, biliverdin=3.2 mg/ml, bilirubin=0.5 mg/ml) were aliquoted and kept at −70° C. until used. Light exposure was limited as much as possible.
Induction of HO-1/Administration of biliverdin/bilirubin. When given to the donor, CoPPIX (20 mg/kg) was given 24 hours before islet isolation to induce HO-1 expression. To verify HO-1 expression in different organs after CoPP treatment, tissue samples are collected 24 hours after treatment and snap frozen in liquid nitrogen. Immunohistological analysis of HO-1 expression is performed using an anti-HO-1 antibody. CoPPIX (20 mg/kg) was administrated to the recipient intraperitoneally (i.p.) on day-1, 1, 3, 5 and 7. Biliverdin (50 μmol/kg) or bilirubin (8.5 μmol/kg) was given intraperitoneally to the donor one hour before islet isolation. For the recipient, biliverdin (50 μmol/kg) or bilirubin ([…]) was administered intraperitoneally either daily or twice per day from day-1 until day 13. No further treatment was given afterwards.
Measurement of Glucose level. Glucose levels were tested twice weekly after transplantation. Glucose levels of <200 mg/dl were considered normoglycemic. Grafts were considered rejected when two consecutive glucose levels were >300 mg/dl.
Tolerance test. The first graft was removed from a number of animals that had islets surviving long-term (longer than 100 days) by doing a nephrectomy. Islets syngeneic with the original donor were transplanted under the contralateral kidney capsule without further treatment. If those second transplanted islets also survived longer than 100 days without further treatment, the recipients were considered tolerant.

CC(=O)N(O)CCCCCNC(=O)CCC(=O)N(O)CCCCCNC(=O)CCC(=O)N(O)CCCCCN [DFO, Desferoxamine]
protective effect on DSS-colitis ([1]; intraperitoneal osmotic pumps, 130 mg/kg/d): no protective effect was observed | protective effect on DSS-colitis ([1]; subcutaneous injections of 125 mg/kg twice daily): no protective effect

C=CC1=C(C)c2cc3[n-]c(cc4nc(cc5[n-]c(cc1n2)c(C)c5C=C)C(C)=C4CCC(=O)O)c(CCC(=O)O)c3C.[Zn+2] [ZnPP, zinc protoporphyrin]
HO-1 enzymatic activity [2]: this was not the case | proliferation of recipient splenocytes [3]: did not | effect on natural course of DSS colitis ([1]; ZnPPIX 20 mg/kg i.p. daily, compared to untreated animals): no significant changes | graft prolongation effect ([4]; ZnPPIX plus DSI (D0), compared to control or DSI (D0) alone): no significant graft prolongation effect | allografts with long-term survival ([4]; ZnPPIX plus DSI (D-7)): 0/9 | graft MST ([4]; ZnPPIX plus DSI (D-7)): 13 days | graft median survival time (MST) ([4]; one dose per day i.p. (ZnPPIX 5 mg/kg; biliverdin 50 μmol/kg), untreated 11.5 days): 11 days

C=CC1=C(C)/C(=C/c2[nH]c(Cc3[nH]c(/C=C4\NC(=O)C(C)=C4C=C)c(C)c3CCC(=O)O)c(CCC(=O)O)c2C)NC1=O [bilirubin]
long-term survival of islets ([5]; 2 dose per day (every twelve hours)): 100% | long-term survival of islets ([5]; single dose per day to donor and recipient): 50%
